{"source": "patent US20100179188A1", "about": "“NITROXIDE RADICAL AS TREATMENT FOR NEURODEGENERATION” (Office of Technology Transfer, NIH, priority 2007, published 2010)", "type_in_all_cases": "in vivo", "key": {"TfR1": {"tested_on": "TfR1", "experiment": "Western blot of TfR1 in brain-region lysates of IRP2−/− mice", "settings": "lysates from cerebellum, brain-stem and forebrain of IRP2−/− mice, Tempo1 diet vs control diet", "protocol": "(§1) Diet: The mice were weaned 3-4 weeks after their birth. Immediately after weaning, mice were maintained on either a Tempo1-supplemented or control diet. In the Tempo1-supplemented diet, powdered Tempo1 was uniformly mixed with bacon-flavored mouse chow by a “cold press” technique (Bio-Serv, Frenchtown, N.J., USA) at a concentration of 10 mg/g of food. Bacon-flavored chow without Tempo1 was used as the control diet.\n(§2) Tissue and lysate preparation: Animals were euthanized and tissues were frozen in liquid nitrogen immediately after harvesting, and stored at −80° C. under argon. Experiments were performed on tissues that were pulverized in liquid N2-cooled mortars in an anaerobic chamber, and then lysed in lysis buffer that was deaerated by cyclic freezethaw and air-removal with argon. […]\n(§3) Lysates made from various brain regions of IRP2−/− mice that were maintained on a control diet or on a Tempo1-supplemented diet were analyzed for IRE binding activity of IRP1 and for TfR1, IRP1, and actin protein levels by gel-shift assay and Western blot. […] FIG. 3b is a quantification of the results as intensity of the bands relative to the control, represented here as 100%. Quantification was performed with the IQMac (IRP1 activity) or NIH Image (protein levels) program. Error bars represent the standard deviation calculated from the results of two different sets of animals."}, "ferritin": {"tested_on": "ferritin", "experiment": "Western blot of ferritin in cerebellar lysates", "settings": "cerebellar lysates of IRP2−/− mice, Tempo1 diet vs control diet", "protocol": "as §1\nTissue and lysate preparation: Animals were euthanized and tissues were frozen in liquid nitrogen immediately after harvesting, and stored at −80° C. under argon. Experiments were performed on tissues that were pulverized in liquid N2-cooled mortars in an anaerobic chamber, and then lysed in lysis buffer that was deaerated by cyclic freezethaw and air-removal with argon. Nuclei and debris were removed by centrifugation. Preparations of lysates for assays of IRP1 activity, western blotting, carbonyl assay and protein analysis were performed anaerobically. […]\nCerebellar lysates from wild-type and IRP2−/− mice that were maintained on a control diet or on a Tempo1-supplemented diet were analyzed for ferritin and actin expression. […] Quantification was performed with the NIH Image program. Error bars represent the standard deviation calculated from the results of three different sets of animals. […]"}, "IRP1": {"biological_target": "T1, IRP1 (Mus musculus, UniProt P28271)", "T1 sequence (P28271 1-889)": "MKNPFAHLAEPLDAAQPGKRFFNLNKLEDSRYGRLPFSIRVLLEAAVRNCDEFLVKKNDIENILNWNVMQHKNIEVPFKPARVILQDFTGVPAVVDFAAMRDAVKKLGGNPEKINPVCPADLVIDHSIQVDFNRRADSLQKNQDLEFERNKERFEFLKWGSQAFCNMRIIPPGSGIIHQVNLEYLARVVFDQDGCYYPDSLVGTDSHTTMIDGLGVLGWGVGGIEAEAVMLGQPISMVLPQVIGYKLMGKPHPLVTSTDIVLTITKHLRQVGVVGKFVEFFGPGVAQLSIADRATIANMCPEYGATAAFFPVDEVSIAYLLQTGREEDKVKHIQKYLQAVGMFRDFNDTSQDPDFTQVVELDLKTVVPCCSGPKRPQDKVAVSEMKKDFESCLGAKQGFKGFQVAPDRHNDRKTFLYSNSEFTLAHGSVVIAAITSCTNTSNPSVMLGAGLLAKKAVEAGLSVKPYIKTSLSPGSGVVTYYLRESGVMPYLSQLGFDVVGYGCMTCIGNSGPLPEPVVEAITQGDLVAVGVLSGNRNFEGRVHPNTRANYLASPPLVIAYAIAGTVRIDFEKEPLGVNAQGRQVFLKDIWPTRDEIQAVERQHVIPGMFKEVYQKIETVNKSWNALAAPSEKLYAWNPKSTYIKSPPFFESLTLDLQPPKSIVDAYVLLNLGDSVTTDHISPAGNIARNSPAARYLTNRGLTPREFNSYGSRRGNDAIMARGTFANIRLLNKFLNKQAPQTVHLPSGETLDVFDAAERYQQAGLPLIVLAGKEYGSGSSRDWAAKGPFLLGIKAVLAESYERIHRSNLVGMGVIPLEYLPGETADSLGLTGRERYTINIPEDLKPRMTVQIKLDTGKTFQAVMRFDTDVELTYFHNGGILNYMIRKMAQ", "experiment": "IRE binding activity of IRP1 in brain-region lysates of IRP2−/− mice (gel-shift)", "parameters": "Lysates made from various brain regions of IRP2−/− mice; from tissue; host or cells: mouse brain (cerebellum, forebrain, brain-stem) lysates", "settings": "lysates from cerebellum, brain-stem and forebrain of IRP2−/− mice, Tempo1 diet vs control diet", "protocol": "as §1, §2, §3"}}, "data": [{"smiles": "CC1(C)CC(O)CC(C)(C)N1[O]", "note": "[Tempo1]", "values": [{"measurement": "TfR1 protein levels", "setting": "TfR1", "result": "markedly increased"}, {"measurement": "ferritin levels", "setting": "ferritin", "result": "reduced"}, {"measurement": "IRE-binding activity", "setting": "IRP1", "result": "markedly increased"}]}]}
